From patent US20240342186A1, “PYRIDINE DERIVATIVES WITH N-LINKED CYCLIC SUBSTITUENTS AS cGAS INHIBITORS” (Boehringer Ingelheim International GmbH, priority 2021, published 2024) come the findings set out here.

Where two headings read alike, the source gives them in different places. Bounds are passed on as bounds.

Assay [1] concerns cellular cGAS activity in dsDNA-stimulated human whole blood. Nature of the assay: Human whole blood assay (hWB IC50): IFNα2α production after dsDNA transfection. The assay is classed as cell-based. The essentials: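 Citrated blood from healthy donors preincubated 60 min at room temperature with compound (top 10 µM, ~1:5 steps, 0.1% DMSO), then transfected with dsDNA/Fugene and incubated 22 h at 37 °C. Plasma IFNα2α measured by MSD immunoassay; IC50 from 4-parameter fit of % control (stimulated vs unstimulated).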

Another assay has as its target cGAS (Homo sapiens (Human), UniProt Q8N884). The experiment in a line: Human cGAS enzyme assay (hcGAS IC50, in vitro), cGAMP formation by RapidFire MS.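 Note: enzyme activated by 45 bp dsDNA with GTP and ATP (30 µM each), 60 min compound pre-incubation then 90 min reaction, cGAMP relative to cyclic-di-GMP internal standard, 8-point dilutions up to 10 µM.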 In kind it is biochemical.
Assay [2] concerns cellular cGAS activity in baculovirus-stimulated THP1-Dual cells (IRF dependent Lucia luciferase reporter). The experiment in a line: Human cGAS cell assay: inhibition of IFN induction in virus-stimulated THP1 cells (THP1(vir) IC50). To be noted: Homo sapiens, THP1-Dual. The assay is classed as cell-based. The method in brief:
(§1)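 THP1-Dual cells with IRF-dependent Lucia luciferase reporter, stimulated by empty baculovirus (dsDNA delivery activating cGAS) or, for the counter assay, directly by cGAMP. 5000 cells/well, 8 concentrations from 10 μM top, 1% DMSO, 18 h at 37 °C; luminescence read, IC50 by 4-parameter logistic fit versus unstimulated low control.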

The subject of assay [3] is cGAMP-stimulated THP1-Dual cells (pathway directly downstream of cGAS). The experiment in a line: cGAMP stimulated counter cell assay: inhibition of IFN induction in cGAMP-stimulated THP1 cells (THP1(cGAMP) IC50). In kind it is cell-based, human. As to conditions: for IC50: Homo sapiens, THP1-Dual, read-out: THP1(cGAMP) IC50 (converted); for Ratio THP1(cGAMP) IC50 / THP1(vir) IC50: selectivity for cGAS inhibition. The method in brief: as §1

Setting [4] is: inhibition of IFN induction in dsDNA-stimulated human whole blood.
Setting [5] is: biochemical (in vitro) cGAS inhibition.
Where [6] appears, read: inhibition of IFN induction in virus-stimulated THP1 cells, read-out: THP1(vir) IC50.
Where [7] appears, read: inhibition of IFN induction in cGAMP-stimulated THP1 cells.
Where [8] appears, read: dsDNA-stimulated human whole blood, IFN induction.
Where [9] appears, read: biochemical (in vitro), human cGAS, 45 bp dsDNA, GTP/ATP.
Where [10] appears, read: read-out: THP1(vir) IC50, virus-stimulated THP1 cells, IFN induction.
The mark [11] stands for this setting: cGAMP-stimulated THP1 cells, counter assay.

cGAS, sequence (Q8N884 whole entry): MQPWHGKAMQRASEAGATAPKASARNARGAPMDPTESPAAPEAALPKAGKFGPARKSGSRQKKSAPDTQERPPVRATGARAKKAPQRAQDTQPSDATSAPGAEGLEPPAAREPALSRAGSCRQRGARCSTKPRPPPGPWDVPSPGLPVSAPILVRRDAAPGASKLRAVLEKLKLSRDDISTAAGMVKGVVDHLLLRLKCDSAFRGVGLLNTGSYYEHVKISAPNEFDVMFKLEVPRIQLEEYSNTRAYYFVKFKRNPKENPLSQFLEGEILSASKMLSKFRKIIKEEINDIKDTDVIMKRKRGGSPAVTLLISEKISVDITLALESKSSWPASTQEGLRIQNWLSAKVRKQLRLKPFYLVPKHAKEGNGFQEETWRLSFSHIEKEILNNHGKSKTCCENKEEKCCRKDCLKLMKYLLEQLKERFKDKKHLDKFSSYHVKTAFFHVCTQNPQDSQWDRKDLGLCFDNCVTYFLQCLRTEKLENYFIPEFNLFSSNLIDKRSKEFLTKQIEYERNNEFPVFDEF

In general, IC50 refers to the concentration needed to halve the response being measured. For the molecule `C[C@@H]1N(c2cc(F)cnc2O[C@H]2C[C@@H](C(=O)O)N(c3nc(C(F)(F)F)nc4c3oc3ccccc34)C2)CCOC12COC2` [Example 1.34], the IC50 in assay [1] (setting [4]) is 0.051 µM; against cGAS (setting [5]) it was 0.003 µM; in assay [2] (setting [6]) it was 0.019 µM; in assay [3] (setting [7]), over 10 µM. Further, the “Ratio THP1(cGAMP) IC50 / THP1(vir) IC50” value in assay [3] is 514.
On the same counts, the results for `C[C@H]1COCCN1c1cc(Br)cnc1O[C@H]1C[C@@H](C(=O)O)N(c2nc(C(F)F)nc3c2oc2ccccc23)C1` [Example 1.28] are 0.629 µM, 0.003 µM, 0.5 µM, over 16.6 µM and over 33.
On the same counts, the results for `C#Cc1cnc(O[C@H]2C[C@@H](C(=O)O)N(c3nc(C(C)(F)F)nc4c3oc3ccccc34)C2)c(N2CCOC3(COC3)[C@H]2C)c1` [Example 1.15] are 0.702 µM, 0.075 µM, 0.332 µM, 26.2 µM and 79.
Take `C[C@H]1CN(C#N)CCN1c1cc(Br)cnc1O[C@H]1C[C@@H](C(=O)O)N(c2nc(C(F)F)nc3c2oc2ccccc23)C1` [Example 1.18]: the IC50 was 0.226 µM in assay [1] (setting [4]), 0.004 µM at cGAS (setting [5]), 0.239 µM in assay [2] (setting [6]) and 6.51 µM in assay [3] (setting [7]). For the same molecule, in assay [3], the “Ratio THP1(cGAMP) IC50 / THP1(vir) IC50” value is recorded as 27.
In the case of `C#Cc1cnc(O[C@H]2C[C@@H](C(=O)OC)N(c3nc(C(F)(F)F)nc4c3oc3ccccc34)C2)c(N2CCOC3(COC3)[C@@H]2C)c1` [Example P03], the half-inhibitory concentration (IC50) in assay [1] (setting [8]) is 1.09 µM; at cGAS (setting [9]) it was 9.62 µM; in assay [2] (setting [10]), 0.188 µM; in assay [3] (setting [11]), 22.8 µM.
As to `C[C@H]1COCCN1c1cc(Cl)cnc1O[C@H]1C[C@@H](C(=O)O)N(c2nc(C(F)F)nc3c2oc2ccccc23)C1` [Example 1.27], the IC50 in assay [1] (setting [4]) is 0.221 µM; on cGAS (setting [5]) it was 0.004 µM; in assay [2] (setting [6]), 0.516 µM; in assay [3] (setting [7]), over 16.6 µM. The “Ratio THP1(cGAMP) IC50 / THP1(vir) IC50” value in assay [3] is on record as over 32.
On the same counts, the results for `C[C@H]1COCCN1c1cc(-c2ccncc2F)cnc1O[C@H]1C[C@@H](C(=O)O)N(c2nc(C(F)(F)F)nc3c2oc2ccccc23)C1` [Example 3.03] are 2.12 µM, 0.007 µM, 0.899 µM, 12.8 µM and 14.
On the same counts, the results for `COc1ncccc1-c1cnc(O[C@H]2C[C@@H](C(=O)O)N(c3nc(C(F)(F)F)nc4c3oc3ccccc34)C2)c(N2CCOC3(COC3)[C@@H]2C)c1` [Example 3.14] are 0.026 µM, 0.011 µM, 0.01 µM, 7.83 µM and 822.
On the same counts, the results for `CNc1nccc(-c2cnc(O[C@H]3C[C@@H](C(=O)O)N(c4nc(C(F)F)nc5c4oc4ccccc45)C3)c(N3CCOC4(COC4)[C@@H]3C)c2)c1OC` [Example 4.03] are 0.078 µM, 0.008 µM, 0.199 µM, 7.87 µM and 40.
As to `C#Cc1cnc(O[C@H]2C[C@@H](C(=O)O)N(c3nc(C(C)(F)F)nc4c3oc3ccccc34)C2)c(N2CCOC3(COC3)[C@@H]2C)c1` [Example 1.14], the IC50 in assay [1] (setting [4]) was 0.007 µM; at cGAS (setting [5]), 0.003 µM; in assay [2] (setting [6]), 0.006 µM; in assay [3] (setting [7]), over 16.6 µM. Further, the “Ratio THP1(cGAMP) IC50 / THP1(vir) IC50” value in assay [3] is over 2708.
On to `COc1cc(-c2cnc(O[C@H]3C[C@@H](C(=O)O)N(c4nc(C(F)F)nc5c4oc4ccccc45)C3)c(N3CCOC4(COC4)[C@@H]3C)c2)c(F)cn1` [Example 3.32], for which the IC50 was 0.017 µM in assay [1] (setting [4]), 0.009 µM against cGAS (setting [5]), 0.002 µM in assay [2] (setting [6]) and 12.9 µM in assay [3] (setting [7]). The “Ratio THP1(cGAMP) IC50 / THP1(vir) IC50” value in assay [3] was determined as 5194.
Consider `C[C@@H]1N(c2cc(Br)cnc2O[C@H]2C[C@@H](C(=O)O)N(c3nc(C(F)(F)F)nc4c3oc3ccccc34)C2)CCOC12COC2` [Example 1.10, (2S,4S)-4-({5-bromo-3-[(9S)-9-methyl-2,5-dioxa-8-azaspiro[3.5]nonan-8-yl]pyridin-2-yl}oxy)-1-[4-(trifluoromethyl)-8-oxa-3,5-diazatricyclo[7.4.0.0^2,7]trideca-1(9),2(7),3,5,10,12-hexaen-6-yl]pyrrolidine-2-carboxylic acid], for which the IC50 in assay [1] (setting [4]) is 0.033 µM; at cGAS (setting [9]) it was 0.005 µM; in assay [2] (setting [6]), 0.091 µM; in assay [3] (setting [7]), 16.1 µM. Also, the “Ratio THP1(cGAMP) IC50 / THP1(vir) IC50” value in assay [3] was determined as 178.
`C#Cc1cnc(O[C@H]2C[C@@H](C(=O)O)N(c3nc(C)nc4c3oc3cc(C(F)F)ccc34)C2)c(N2CCOC3(COC3)[C@@H]2C)c1` [Example 2.06]: the IC50 is 0.052 µM in assay [1] (setting [4]), 0.004 µM against cGAS (setting [5]), 0.063 µM in assay [2] (setting [6]) and 11.9 µM in assay [3] (setting [7]). Besides, the “Ratio THP1(cGAMP) IC50 / THP1(vir) IC50” value in assay [3] is on record as 189.
On the same counts, the results for `C[C@@H]1N(c2cc(-c3ccc(OC4CCOCC4)nc3)cnc2O[C@H]2C[C@@H](C(=O)O)N(c3nc(C(F)(F)F)nc4c3oc3ccccc34)C2)CCOC12COC2` [Example 3.29] are 1.57 µM, 0.066 µM, 0.591 µM, 6.54 µM and 11.
On the same counts, the results for `CNc1cc(-c2cnc(O[C@H]3C[C@@H](C(=O)O)N(c4nc(C(F)F)nc5c4oc4ccccc45)C3)c(N3CCOC4(COC4)[C@@H]3C)c2)ccn1` [Example 3.08] are 0.003 µM, 0.005 µM, 0.004 µM, 4.79 µM and 1179.
On the same counts, the results for `C#Cc1cnc(O[C@H]2C[C@@H](C(=O)O)N(c3nc(C)nc4c3oc3cc(F)ccc34)C2)c(N2CCOC3(COC3)[C@@H]2C)c1` [Example 2.08] are 0.006 µM, 0.003 µM, under 0.005 µM, 18.8 µM and 3490.
For the molecule `COC(=O)[C@@H]1C[C@H](Oc2ncccc2N2CCOC3(COC3)[C@@H]2C)CN1c1nc(C(F)F)nc2c1oc1ccccc12` [Example P01, Methyl (2S,4S)-4-({3-[(9S)-9-methyl-2,5-dioxa-8-azaspiro[3.5]nonan-8-yl]pyridin-2-yl}oxy)-1-[4-(difluoromethyl)-8-oxa-3,5-diazatricyclo[7.4.0.0^2,7]trideca-1(9),2(7),3,5,10,12-hexaen-6-yl]pyrrolidine-2-carboxylate], the IC50 in assay [1] (setting [8]) was 1.31 µM; against cGAS (setting [9]), over 9.96 µM; in assay [2] (setting [10]), 0.358 µM; in assay [3] (setting [11]), 26.1 µM.
